Results reported in patent publication US8324422B2, “Enhydrazone esters for treating asthma, allergy and inflammation” (Kuwait University, priority 2008, dated 2012).

Assays:
[1] = test system: human peripheral blood eosinophils; assay: complement C5a-stimulated degranulation (EPO release) of human eosinophils; assay type: cell-based; settings: for IC50: C5a (30 nM) + cytochalasin B, 10 min pre-incubation, 30 min at 37° C., read-out: concentration achieving 50% inhibition of EPO release; for effect on EPO release at high concentration: at the concentrations of 300 nM and above
Method: Example 1 involves the testing of the effect of complement C5a-induced degranulation of human blood eosinophils, and IgE-dependent degranulation of mast cells. Human peripheral blood eosinophils were purified to >98% by the immunomagnetic method. Aliquots containing 2.5×10^4 cells were added to each well of a 96-well microplate. The cells were separately pre-incubated for 10 minutes with CEE-1, CEE-2 or the drug solvent (DMSO) and then subsequently stimulated with recombinant human complement C5a (30 nM) in the presence of cytochalasin B (5 μg/mL). The reaction was allowed to proceed for 30 minutes at 37° C. The amount of the granular eosinophil peroxidases (EPO) released into the supernatant (as index of degranulation) was determined by the o-phenylenediamine method. The amount of EPO released was expressed as a percentage of the total cell content.
Cells were incubated with the each of CEE-1 and CEE-2 for 10 minutes before stimulation. Control uninhibited releases were in the range of 20-30% of total cell content. Results are shown as mean±SD, n=4.

[2] = test system: mouse peritoneal macrophages; assay: LPS-stimulated release of TNF-α from mouse peritoneal macrophages; assay type: cell-based; settings: for IC50: LPS 1 μg/mL for 18 hours, 30 min pre-treatment, ELISA, read-out: concentration that achieved 50% inhibition of TNF-α release
Method: The antiinflammatory effect of CEE-1 and CEE-2 was tested on LPS-stimulated release of tumor necrotic factor-α (TNF-α) from mouse peritoneal macrophages. Thioglycollate-induced peritoneal macrophages were obtained by peritoneal lavage of Balb c mice. Macrophages purified by adherence to plastic plate were cultured in a supplemented RPMI medium and pre-treated with CEE-1, CEE-2 or their solvent (DMSO) for 30 minutes before being stimulated with LPS (1 μg/mL) for 18 hours. The amount of TNF-α released into the supernatant was determined by ELISA using commercially available kits.
FIG. 4 illustrates the inhibitory effect of CEE-1 and CEE-2 on the release of TNF-α from LPS-stimulated mouse peritoneal macrophages. Cells were pre-treated with the drugs for 30 minutes before stimulation with LPS (1 μg/mL). The net uninhibited releases were in the range of 130-185 pg/ml. Values are shown as mean±SD, n=3.

[3] = test system: RBL-2H3 mast cells; assay: antigen induced IgE-mediated degranulation (β-hexoseaminidase release) of mast cells (RBL-2H3); assay type: cell-based, rat; settings: anti-DNP IgE sensitized, DNP-BSA 100 ng/mL, 10 min pre-treatment; read-out: concentration achieving 50% inhibition of β-hexoseaminidase release
Method: The anti-allergic effect was tested on IgE-dependent mast cell degranulation using the rat basophilic leukemia (RBL-2H3) cell line model. The cells were passively sensitized with 0.5 μg/mL anti-DNP monoclonal IgE antibody for 1 hour, and then washed twice to remove unbound antibody. They were then separately pre-treated with CEE-1, CEE-2 or their solvent (DMSO) for 10 minutes before being stimulated with the specific antigen DNP-BSA (100 ng/mL). After 30 minutes of incubation, the amount of granular β-hexoseaminidase released into the supernatant (index of degranulation) was determined photometrically.
FIG. 3 illustrates the inhibition of antigen induced IgE-mediated degranulation (β-hexoseaminidase release) of mast cells (RBL-2H3) by CEE-1 and CEE-2. Cells were incubated with CEE-1 and CEE-2 for 10 minutes before stimulation. Control uninhibited releases were in the range of 15-26% of total cell content. Results are shown as mean±SD, n=3.

[4] = test system: RBL-2H3 mast cells
[5] = test system: mouse peritoneal macrophages; assay: viability of macrophages after overnight incubation; assay type: cell-based
[6] = test system: human peripheral blood eosinophils; assay: viability of eosinophils at concentrations that abolished EPO release; assay type: cell-based
Text: In untreated cells, C5a induced the release of 20-30% of the total cellular content of EPO.

IC50 [1] [nM] | IC50 [2] [nM] | Compound | effect on EPO release at high concentration [1] | effect on TNF-α release at 10 μM [2] | IC50 [3] [nM] | cellular toxicity (trypan blue exclusion test) [4] | viability of the cells [5] | viability of the cells [6]
45 | 80 | CCOC(=O)C1C(=O)C=C(NNc2ccccc2)CC1c1ccccc1 (stereo not shown) [CEE-1, ethyl 4-phenylhydrazinocyclohex-3-en-2-oxo-6-phenyl-1-oate] | completely abolished EPO release | completely abolished the release | 800 | no cellular toxicity | no effect on their viability | did not significantly affect the viability of the cells
94 | 82 | COC(=O)C1C(=O)C=C(NNc2ccccc2)CC1c1ccccc1 (stereo not shown) [CEE-2, methyl 4-phenylhydrazinocyclohex-3-en-2-oxo-6-phenyl-1-oate] | completely abolished EPO release | completely abolished the release | 1200 | no cellular toxicity | no effect on their viability | did not significantly affect the viability of the cells
